Tests used:
Type in all cases: cell-based, human
HS-ORS [1] = assay: Western blot analysis (phospho-IRF3, cGAS protein) after siRNA transfection of HS-ORS; details: compared to scramble siRNA
From the text: (§1) FIG. 1: IFI16-STING pathway induces interferon (IFN) production in outer root sheath (ORS) cells from patients with hidradenitis suppurativa (HS). (A) Relative mRNA levels of IFN-β and IP10 in HS-ORS and HD-ORS cells. **P<0.01; ns, nonsignificant; Mann-Whitney rank-sum test. (B) Nonparametric Spearman correlation analysis of the expression of IFN-β genes and percentage of cells in phase S in HS-ORS cell populations. (C) Levels of IFN-β mRNA in HS-ORS (n=10) and HD-ORS (n=4) cell populations transfected with siSTING for 2 days before IFN-β mRNA quantification. (D) IFN-β mRNA levels in HS-ORS cell populations (n=3) transfected with siRNA-cGAS or siRNA-IFI16 for 2 days before IFN-β mRNA quantification. (E) DNA fiber spreading analysis of fork progression in HS-ORS cell populations (n=2) transfected with siSTING for 2 days before DNA fiber spreading. ****P<0.0001, Mann-Whitney rank-sum test. (F) Western blot analysis of the levels of phospho-IRF3 in ORS transfected with siSTING or siCtrl. Quantification of phospho-IRF3 signal intensity in HS-ORS (n=7) and HD (n=5).
(§2) The following siRNAs were used: siSTING (CUGCAUCCAUCCAUCCCGUdTdT; SEQ ID NO:1, Sigma #Hs01_00031038, Sigma, St Louis, […].), siIFI16 (L-020004-00-0005, ON-TARGETplus Human IFI16 siRNA SMARTpool, Horizon Discovery, Waterbeach, UK), and sicGAS (L-015607-02-0005, ON-TARGETplus Human MB21D1 siRNA SMARTpool, Horizon Discovery). […]

HD-ORS = assay: Western blot analysis of phospho-IRF3 after siRNA transfection of HD-ORS; details: compared to scramble siRNA
From the text: as §1, §2

HD-ORS cells = assay: IFN-β and ISG mRNA quantification after siRNA transfection of HD-ORS cells; details: compared to scramble siRNA
From the text: as §1, with “(F) Western blot analysis of the levels of phospho-IRF3 in ORS transfected with siSTING or siCtrl.” left out, “(n=5). […]” for “(n=5).”
(§3) ORS cells were lysed with RLT Plus Buffer (Qiagen). The RNA was extracted using the RNeasy Plus Mini Kit (Qiagen) according to the manufacturer's protocol then converted into cDNA using the QuantiTect Reverse Transcription Kit (Qiagen) for IFNβ detection and the High-Capacity cDNA Reverse Transcription Kit (Applied Biosystems, Thermo Fisher Scientific) for the expression of other genes. […]

HS-ORS cell populations = assay: DNA fiber spreading analysis of fork progression after siSTING transfection; details: both HS-ORS cell populations (n=2); siSTING for 2 days before DNA fiber spreading
From the text: as §1, with “(F) Western blot analysis of the levels of phospho-IRF3 in ORS transfected with siSTING or siCtrl.” left out, “(n=5). […]” for “(n=5).”
DNA fiber spreading was performed as described by Jackson and Pombo (16). […] The DNA fiber images thus acquired were analyzed using MetaMorph Microscopy Automation and Image Analysis Software (Molecular Devices, San Jose, Calif.) and the results were evaluated statistically by applying the two-sided Mann-Whitney rank-sum test with GraphPad Prism software (GraphPad, La Jolla, Calif.).

HS-ORS cells = assay: IFN-β and ISG mRNA quantification after siRNA transfection of HS-ORS cells; details: compared to scramble siRNA
From the text: as §1, with “(F) Western blot analysis of the levels of phospho-IRF3 in ORS transfected with siSTING or siCtrl.” left out, “(n=5). […]” for “(n=5).”
as §3

HS-ORS [2] = assay: mRNA quantification of ISGs in HS-ORS treated with drugs targeting the IFN pathway; details: compared to ORS treated with DMSO
Experimental: FIG. 2: Outer root sheath (ORS) cells from two patients were treated with two drugs (A. Ruxolitinib B. H151) targeting the interferon (IFN) pathway. mRNA levels of MX1, IP10, IFI27 and OAS1 in ORS. HS-ORS (n=2) were treated with two drugs during 24 hours before performing mRNA quantification.
ORS cells were lysed with RLT Plus Buffer (Qiagen). The RNA was extracted using the RNeasy Plus Mini Kit (Qiagen) according to the manufacturer's protocol then converted into cDNA using the QuantiTect Reverse Transcription Kit (Qiagen) for IFNβ detection and the High-Capacity cDNA Reverse Transcription Kit (Applied Biosystems, Thermo Fisher Scientific) for the expression of other genes.
For real-time PCR analysis of the cDNA samples thus obtained, we prepared custom-made primer sets using the Brilliant II SYBR green QPCR master mix (Agilent Technologies) or Quantitect SYBR Green PCR Kit (Qiagen) according to the manufacturers' protocols. Real-time PCR was performed on a MX3000P device (Agilent). The GAPDH or OAZ1 mRNA level was used for normalization. The relative expression (ΔCt) of mRNAs of each gene was computed using GAPDH or OAZ-1 expression as the reference.
We used two drugs targeting IFN pathway. HS-ORS (n=2) were treated with drugs during 24 hours before performing mRNA quantification. Four ISGs: MX1, OAS1, IFI27 and IP10 were analyzed.

[3] = first patient, ORS treated 24 hours

siSTING: siRNA CUGCAUCCAUCCAUCCCGUdTdT; SEQ ID NO:1, Sigma #Hs01_00031038 (sense CUGCAUCCAUCCAUCCCGUTT; dTdT overhang, further chemistry not given here)
IRF3 phosphorylation at Ser396 (pIRF3) (HS-ORS [1]): inhibition
IRF3 phosphorylation at Ser396 (pIRF3) (HD-ORS): no modification
IFN-β transcript levels (HD-ORS cells; HD-ORS cells, siRNA 10 μM, 2 days): not associated with a difference
ISGs transcripts (OAS1 and IP-10) (HD-ORS cells; ORS from HD): no change
IdU track length (HS-ORS cell populations): decreased to the length observed in HD-ORS cells
IFN-β transcript levels (HS-ORS cells; HS-ORS cells, siRNA 10 μM, 2 days): lower
ISGs transcripts (OAS1 and IP-10) (HS-ORS cells; ORS from HS patients): decrease

CCc1ccc(NC(=O)Nc2c[nH]c3ccccc23)cc1 [H151, N-(4-Ethylphenyl)-N′-1H-indol-3-yl-urea]
levels of IFI27 transcripts (HS-ORS [2]; HS-ORS (n=2), 24 hours): reduced levels
levels of IP10 transcripts (HS-ORS [2]; HS-ORS (n=2), 24 hours): reduced levels
levels of MX1 transcripts (HS-ORS [2]; HS-ORS (n=2), 24 hours): reduced levels
levels of OAS1 transcripts (HS-ORS [2]; HS-ORS (n=2), 24 hours): reduced levels
levels of IFI27 transcripts (HS-ORS [2]; [3]): reduced levels
levels of IP10 transcripts (HS-ORS [2]; [3]): reduced levels
levels of MX1 transcripts (HS-ORS [2]; [3]): reduced levels
levels of OAS1 transcripts (HS-ORS [2]; [3]): reduced levels
